Data: EP3443980A1, “COMPOUND FOR THE TREATMENT OF PATIENTS WITH LEPTIN-RESISTANT OBESITY, BARDET-BIEDL SYNDROME AND OTHER CILIOPATHIES” (Ciliocure Limited, priority 2017, dated 2019)

Key:
Type in all cases: in vivo
[1] = system: leptin-resistant obese mice carrying the M390R mutation in the Bbs1 gene (Bbs1^M390R); test: Body weight and food intake of leptin-resistant obese Bbs1 M390R mice (Experiment 2); conditions: mouse model for Bardet-Biedl syndrome with leptin resistance
Excerpt: Experiment 2: The purpose of the experiment is to study the effects of GLP-1 receptor agonists on • body weight and food intake of leptin-resistant obese mice carrying the M390R mutation in the Bbs1 gene (Bbs1^M390R) and on • body weight and food intake of lean wild type littermate controls, both groups fed ad libitum. In this particular experiment the GLP-1 receptor agonist used is acetyl-GLP-1(7-34)amide. The M390R mutation in the Bbs1 gene can also be found in human Bardet-Biedl syndrome.
Male 12-16 weeks old mice are housed in individual cages for 3-5 days to acclimate to single housing conditions before baseline body weight and 24-hour food intake is determined during 4 days. Then food intake and body weight is tested in response to treatment with acetyl-GLP-1(7-34)amide. […]
During the treatment period, mice continue to have free access to food. […] At the end of the 7-day treatment period, body composition is determined in live mice using nuclear magnetic resonance (NMR) tomography. Mice are then sacrificed and the weight of various organs and tissues including various fat depots, liver, kidneys, heart, lung and brain are measured. […]

BBS12^-/- mice = test: Apoptosis of photoreceptors in BBS12 model: retinal explants and BBS12-/- mice (Experiments 1a, 1b); conditions: another mouse model for Bardet-Biedl syndrome
Protocol: Experiment 1a: Effects of GLP-1 in ex-vivo model (retinal explants): In BBS12-deprived retinal explants and the Bbs12^/ murine model, impaired intraciliary transport results in protein retention in the endoplasmic reticulum. The protein overload activates a pro-apoptotic unfolded protein response leading to a specific Caspase12-mediated apoptosis of the photo-receptors. BBS12-deprived retinal explants are incubated with Ac-GLP-1 (7-34)amide and Caspase12-mediated apoptosis of the photo-receptors is compared to the apoptosis rate of BBS12-deprived retinal explants, which have been treated with the vehicle only.
• 15-day-old mice are sacrificed by decapitation, and the eyes are removed • First, the sclera is carefully removed, leaving the retinal pigmented epithelium attached to the eye ball. • Incisions are made at the edge of the cornea to remove cornea, lens, and hyaloid body. • Retinas are transferred, with retinal pigmented epithelium side down, to a culture membrane • Retina explants are maintained at 37 °C in a humidified 5% CO2 atmosphere. • Specific gene silencing with lentiviruses that carry a shRNA sequence for Bbs12 is performed. • Drugs are added to the culture medium […]

[2] = system: mice carrying the M390R mutation in the Bbs1 gene (Bbs1^M390R); test: Retinal degeneration (rod-cone dystrophy, retinal cell apoptosis) in Bbs1 M390R mice (Experiment 3); conditions: the same mouse model for Bardet-Biedl syndrome
Protocol: Experiment 3: The purpose of the experiment is to study the effects of GLP-1 receptor agonists on • Development of rod-cone dystrophy in mice carrying the M390R mutation in the Bbs1 gene (Bbs1^M390R). In this particular experiment the GLP-1 receptor agonist used is acetyl-GLP-1(7-34)amide. The M390R mutation in the Bbs1 gene can also be found in human Bardet-Biedl syndrome.
Male Bbs1^M390R mice are used in the experiment. From postnatal day 6 to postnatal day 30 the experimental group is treated intraperitoneally with acetyl-GLP-1 (7-34)amide. Mice of the control group are treated during the same age period with vehicle.
Analysis of endpoints: comparison of control vs GLP-1 At the end of the treatment period, mice are investigated by use of electroretinography (ERG), optical coherence tomography (OCT) and histology.

CC[C@H](C)[C@H](NC(=O)[C@H](Cc1ccccc1)NC(=O)[C@H](CCC(=O)O)NC(=O)[C@H](CCCCN)NC(=O)[C@H](C)NC(=O)[C@H](C)NC(=O)[C@H](CCC(N)=O)NC(=O)CNC(=O)[C@H](CCC(=O)O)NC(=O)[C@H](CC(C)C)NC(=O)[C@H](Cc1ccc(O)cc1)NC(=O)[C@H](CO)NC(=O)[C@H](CO)NC(=O)[C@@H](NC(=O)[C@H](CC(=O)O)NC(=O)[C@H](CO)NC(=O)[C@@H](NC(=O)[C@H](Cc1ccccc1)NC(=O)[C@@H](NC(=O)CNC(=O)[C@H](CCC(=O)O)NC(=O)[C@H](C)NC(=O)[C@H](Cc1c[nH]cn1)NC(C)=O)[C@@H](C)O)[C@@H](C)O)C(C)C)C(=O)N[C@@H](C)C(=O)N[C@@H](Cc1c[nH]c2ccccc12)C(=O)N[C@@H](CC(C)C)C(=O)N[C@H](C(=O)N[C@@H](CCCCN)C(N)=O)C(C)C [Ac-GLP-1 (7-34)amide, N-acetyl-GLP-1(7-34)amide]
food intake [1]: inhibit food intake | weight loss [1]: stimulate weight loss | apoptosis of retinal cells (BBS12^-/- mice): inhibits apoptosis of retinal cells | apoptosis of retinal cells [2]: inhibits apoptosis of retinal cells
